The text below walks through data of ChEMBL document CHEMBL1139897, “Design of potent PPARalpha agonists” (Bioorg Med Chem Lett, 2007).

For data set [1], the target named is T1, Peroxisome proliferator-activated receptor alpha (Homo sapiens) (UniProt Q07869).
T1 sequence (whole entry): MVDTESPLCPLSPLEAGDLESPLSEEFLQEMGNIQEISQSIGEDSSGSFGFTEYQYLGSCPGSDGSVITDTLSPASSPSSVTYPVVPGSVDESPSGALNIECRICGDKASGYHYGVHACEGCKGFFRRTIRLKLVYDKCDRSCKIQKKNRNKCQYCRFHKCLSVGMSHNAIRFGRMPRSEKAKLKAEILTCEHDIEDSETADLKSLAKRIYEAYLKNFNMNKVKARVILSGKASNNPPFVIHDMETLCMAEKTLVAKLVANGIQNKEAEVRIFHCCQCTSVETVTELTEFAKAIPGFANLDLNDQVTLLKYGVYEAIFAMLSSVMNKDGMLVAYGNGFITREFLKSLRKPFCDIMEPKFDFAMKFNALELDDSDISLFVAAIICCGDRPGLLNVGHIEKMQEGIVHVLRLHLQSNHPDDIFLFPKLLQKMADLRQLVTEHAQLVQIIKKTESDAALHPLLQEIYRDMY
In words: Agonist activity at human PPARalpha by transactivation assay relative to WY-14643. Type of data set: functional.

Data set [2] addresses T2, Peroxisome proliferator-activated receptor delta (Homo sapiens, UniProt Q03181).
T2 sequence (Q03181 whole entry): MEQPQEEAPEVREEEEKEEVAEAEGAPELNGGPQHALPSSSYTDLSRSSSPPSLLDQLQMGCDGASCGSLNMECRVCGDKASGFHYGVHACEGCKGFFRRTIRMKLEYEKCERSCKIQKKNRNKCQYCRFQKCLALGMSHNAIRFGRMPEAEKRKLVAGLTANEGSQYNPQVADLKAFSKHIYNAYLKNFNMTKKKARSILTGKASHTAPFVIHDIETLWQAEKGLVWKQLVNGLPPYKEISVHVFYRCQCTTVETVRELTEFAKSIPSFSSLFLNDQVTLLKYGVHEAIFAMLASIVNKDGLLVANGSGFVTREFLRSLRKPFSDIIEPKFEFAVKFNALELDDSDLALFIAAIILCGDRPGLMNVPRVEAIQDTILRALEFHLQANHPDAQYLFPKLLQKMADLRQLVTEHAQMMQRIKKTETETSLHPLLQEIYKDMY
In words: Agonist activity at human PPARdelta by transactivation assay. Type of data set: functional.

Data set [3] deals with T3, Peroxisome proliferator-activated receptor alpha (Homo sapiens, UniProt Q07869).
T3 sequence (Q07869 whole entry): T1 sequence (whole entry)
The data set can be described thus: Agonist activity at human PPARalpha by transactivation assay. Type of data set: functional.

Data set [4] deals with T4, Peroxisome proliferator-activated receptor gamma (Homo sapiens, UniProt P37231).
T4 sequence (P37231 whole entry): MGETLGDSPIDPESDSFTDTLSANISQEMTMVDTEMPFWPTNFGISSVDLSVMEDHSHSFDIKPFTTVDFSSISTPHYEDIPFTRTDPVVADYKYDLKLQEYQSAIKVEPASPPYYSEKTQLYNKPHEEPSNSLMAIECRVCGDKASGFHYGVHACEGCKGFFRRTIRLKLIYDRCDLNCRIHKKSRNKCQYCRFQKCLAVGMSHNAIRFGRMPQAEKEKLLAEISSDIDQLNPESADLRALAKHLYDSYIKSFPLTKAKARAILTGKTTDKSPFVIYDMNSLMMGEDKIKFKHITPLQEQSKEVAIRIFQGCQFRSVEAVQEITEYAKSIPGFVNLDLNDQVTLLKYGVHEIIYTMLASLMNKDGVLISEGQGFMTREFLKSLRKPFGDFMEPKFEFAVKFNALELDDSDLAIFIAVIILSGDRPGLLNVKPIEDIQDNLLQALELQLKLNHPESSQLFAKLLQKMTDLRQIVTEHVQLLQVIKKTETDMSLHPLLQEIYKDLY
Description: Agonist activity at human PPARgamma by transactivation assay

Data set [5] can be described thus: Oral bioavailability in rat at 2.5 mg/kg. Type of data set: ADME, organism-based. The settings on record: in vivo.
Data set [6] can be described thus: Half life in rat at 2.5 mg/kg, po. Type of data set: ADME, organism-based. Also on record: dose 2.5 mg/kg, route oral. The settings on record: in vivo.
The nature of data set [7]: Cmax in rat at 2.5 mg/kg, po. Type of data set: ADME, organism-based. Also on record: dose 2.5 mg/kg, route oral. The settings on record: in vivo.

The EC50 is the concentration giving half of the maximal effect. Read a high EC50 as a need for much substance. `CCO[C@@H](Cc1ccc(OC/C=C/c2cc(OC)cc(OC)c2)cc1)C(=O)O` gave an Activity in data set [1] of 186%. The compound further yielded an EC50 in data set [2] of 13000 nM.

The compound `CCO[C@@H](Cc1ccc(OC/C=C(\C)c2ccc(-c3ccccc3)cc2)cc1)C(=O)O` gave an EC50 in data set [3] of 500 nM. Moreover, in data set [1], the Activity was found to be 158%.

For `CCO[C@@H](Cc1ccc(OC/C=C/c2cc(C#Cc3ccccc3)cc(C#Cc3ccccc3)c2)cc1)C(=O)O`, the values for the EC50 in data set [3] and in data set [4] were 500 nM and 3100 nM, respectively. This compound returned an Activity in data set [1] of 108%.

For the compound `CCO[C@@H](Cc1ccc(OC/C=C/c2cc(OCC(F)(F)F)cc(OCC(F)(F)F)c2)cc1)C(=O)O`, the EC50 in data set [3] was determined as 2 nM; in data set [2], 4000 nM; in data set [4], 800 nM. This compound yielded an Activity in data set [1] of 149%.

What is called bioavailability is dose-corrected exposure relative to a reference, in per cent. Read a low bioavailability as little systemic uptake. One may read the half-life as the time needed for the level to fall by half in the phase considered. Low values mean fast loss, high ones slow loss. What is called Cmax is the peak of the concentration-time curve. As for `CCO[C@@H](Cc1ccc(OC/C=C/c2cc(OC(C)C)cc(OC(C)C)c2)cc1)C(=O)O`, the concentration for a half-maximal effect (EC50) came out at 4 nM in data set [3], 6000 nM in data set [2] and 80 nM in data set [4]. Moreover, the Activity in data set [1] amounted to 207%. In data set [5], this compound came in with a bioavailability of 95%. Also, the half-life in data set [6] stood at 2.42 h. In data set [7], this compound returned a Cmax of 1840 ng/mL.

`CCO[C@@H](Cc1ccc(OC/C=C/c2cc(CCc3ccccc3)cc(CCc3ccccc3)c2)cc1)C(=O)O`: the EC50 in data set [3] was 30 nM; in data set [4], 5100 nM. Also, in data set [1], the Activity is 118%.

Consider `CCO[C@@H](Cc1ccc(OC/C=C/c2cc(-c3ccccc3)cc(-c3ccccc3)c2)cc1)C(=O)O`, for which the EC50 in data set [3] came out at 20 nM; in data set [2] it was 4000 nM; in data set [4], 200 nM. Moreover, the Activity in data set [1] amounted to 30%.

Take `CCO[C@@H](Cc1ccc(OC/C=C/c2ccccc2)cc1)C(=O)O`: the figures for the EC50 in data set [3], in data set [2] and in data set [4] were 1600 nM, 18000 nM and 8000 nM, respectively. The Activity in data set [1] worked out at 169%.

As for `CCO[C@@H](Cc1ccc(OC/C=C/c2cc(-c3ccc(C(C)(C)C)cc3)cc(-c3ccc(C(C)(C)C)cc3)c2)cc1)C(=O)O`, the values for the EC50 in data set [3] and in data set [4] were 14000 nM and 1000 nM, respectively. In data set [1], this compound gave an Activity of 110%.

Take `CCO[C@@H](Cc1ccc(OC/C=C/c2cc(C(F)(F)F)cc(C(F)(F)F)c2)cc1)C(=O)O`: the EC50 is 20 nM in data set [3], 1400 nM in data set [2] and 400 nM in data set [4]. Further, the Activity in data set [1] was determined as 195%.

Consider `CCO[C@@H](Cc1ccc(OC/C=C/c2cc(OC3CCCC3)cc(OC3CCCC3)c2)cc1)C(=O)O`, for which the EC50 turned out to be 20 nM in data set [3], 15000 nM in data set [2] and 300 nM in data set [4]. Further, the Activity in data set [1] was found to be 135%.

Consider `CCO[C@@H](Cc1ccc(OC/C=C/c2cc(Br)cc(Br)c2)cc1)C(=O)O`, for which the EC50 in data set [3] was found to be 300 nM; in data set [2], 20000 nM; in data set [4] it was 4100 nM. In addition, in data set [1], the Activity was found to be 121%.

With `CCO[C@@H](Cc1ccc(OC/C=C/c2cc(OC(=O)c3ccccc3)cc(OC(=O)c3ccccc3)c2)cc1)C(=O)O`, the EC50 in data set [3] came out at 50 nM; in data set [4], 190 nM. This compound also registered an Activity in data set [1] of 121%.

Take `CCO[C@@H](Cc1ccc(OC/C=C/c2cc(/C=C/c3ccccc3)cc(/C=C/c3ccccc3)c2)cc1)C(=O)O`: the results for the EC50 in data set [3] and in data set [4] were 90 nM and 3000 nM, respectively. The same compound showed an Activity in data set [1] of 66%.

`CCOc1cc(/C=C/COc2ccc(C[C@H](OCC)C(=O)O)cc2)cc(OCC)c1`: the EC50 in data set [3] was found to be 20 nM; in data set [2], 7900 nM; in data set [4], 200 nM. In data set [1], this compound displayed an Activity of 197%. Besides, in data set [5], the bioavailability amounted to 86%. In data set [6], this compound displayed a half-life of 2.17 h. In data set [7], this compound returned a Cmax of 6160 ng/mL.
